# Experiments:
# Assay in all cases: GC-MS of decane overlay from E. coli expressing the synthase
# Format in all cases: cell-based
# [1] = target: T1, epi-isozizaene synthase (EIZS; codon-optimized coEIZS) (Streptomyces coelicolor, UniProt Q9K499); details: product epi-isozizaene (single product); endogenous FPP supply, no FPP added
# T1 construct: gene cyc1; codon-optimized gene, untagged, plasmids pTrc99a / pBbE7a / prstA, expressed in E. coli DH1
# T1 sequence (Q9K499 1-361): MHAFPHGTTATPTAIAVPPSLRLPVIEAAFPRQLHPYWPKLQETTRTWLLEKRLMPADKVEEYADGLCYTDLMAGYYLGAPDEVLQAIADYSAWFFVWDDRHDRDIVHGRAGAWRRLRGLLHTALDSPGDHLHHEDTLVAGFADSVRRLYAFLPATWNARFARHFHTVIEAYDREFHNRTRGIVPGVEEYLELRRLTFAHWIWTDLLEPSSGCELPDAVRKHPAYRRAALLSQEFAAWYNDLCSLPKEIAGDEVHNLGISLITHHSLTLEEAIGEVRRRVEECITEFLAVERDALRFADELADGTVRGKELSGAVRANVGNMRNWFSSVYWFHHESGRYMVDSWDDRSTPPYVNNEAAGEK
# [2] = target: T2, pentalenene synthase (PentS; codon-optimized coPentS) (Streptomyces exfoliatus, UniProt Q55012); details: product pentalenene (single product); endogenous FPP supply, no FPP added
# T2 construct: gene penA; codon-optimized gene, untagged, plasmids pTrc99a / pBbE7a / prstA, expressed in E. coli DH1; also in S. cerevisiae EPY300
# T2 sequence (Q55012 2-337): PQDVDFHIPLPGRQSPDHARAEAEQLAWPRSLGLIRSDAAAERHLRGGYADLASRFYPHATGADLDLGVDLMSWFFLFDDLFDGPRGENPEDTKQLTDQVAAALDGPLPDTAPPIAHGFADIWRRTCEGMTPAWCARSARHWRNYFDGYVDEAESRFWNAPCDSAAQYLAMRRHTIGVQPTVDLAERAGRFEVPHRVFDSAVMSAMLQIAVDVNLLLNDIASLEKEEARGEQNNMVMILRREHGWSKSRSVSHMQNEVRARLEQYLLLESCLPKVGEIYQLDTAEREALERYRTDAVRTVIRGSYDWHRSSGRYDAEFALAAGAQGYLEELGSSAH
# [3] = target: T3, α-isocomene synthase (MrTPS2; codon-optimized coMrTPS2) (Matricaria chamomilla, UniProt I6R4V5); details: main product alpha-isocomene with silphinene, modephene, beta-isocomene, caryophyllene, alpha-humulene; endogenous FPP supply, no FPP added
# T3 construct: codon-optimized gene, untagged, plasmids pTrc99a / pBbE7a / prstA, expressed in E. coli DH1
# T3 sequence (I6R4V5 1-546): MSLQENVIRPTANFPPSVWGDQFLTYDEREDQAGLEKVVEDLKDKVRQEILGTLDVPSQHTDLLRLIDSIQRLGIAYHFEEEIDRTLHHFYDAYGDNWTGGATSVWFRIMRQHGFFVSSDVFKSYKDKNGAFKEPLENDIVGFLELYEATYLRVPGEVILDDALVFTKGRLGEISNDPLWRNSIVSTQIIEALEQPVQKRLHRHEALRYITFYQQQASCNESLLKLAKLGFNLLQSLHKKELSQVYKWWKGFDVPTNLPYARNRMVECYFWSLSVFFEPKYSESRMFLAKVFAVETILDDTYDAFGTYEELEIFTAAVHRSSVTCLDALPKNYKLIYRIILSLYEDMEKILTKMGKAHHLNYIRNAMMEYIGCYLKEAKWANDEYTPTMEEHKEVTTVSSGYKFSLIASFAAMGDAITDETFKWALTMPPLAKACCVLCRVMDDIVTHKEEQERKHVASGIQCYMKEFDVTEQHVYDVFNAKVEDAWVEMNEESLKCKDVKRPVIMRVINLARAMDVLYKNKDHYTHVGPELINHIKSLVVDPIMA
smiles,measurement,setting,value
CC(C)=CCC/C(C)=C/CC/C(C)=C/COP(=O)(O)OP(=O)(O)O [farnesyl diphosphate],GC-MS of decane overlay from E. coli expressing the synthase,[1],cultures expressing coEIZS and coPentS produced single products
same,GC-MS of decane overlay from E. coli expressing the synthase,[2],cultures expressing coEIZS and coPentS produced single products
same,GC-MS of decane overlay from E. coli expressing the synthase,[3],"culture expressing coMrTPS2 produced a broad spectrum of compounds, including α-isocomene"
